Key:
[1] = test system: mice transplanted with HOXA9/MEIS1 cells; test: mice transplanted with HOXA9/MEIS1 cells treated with fostamatinib-impregnated feed; format: in vivo, mouse; conditions: feed at 3 g/kg, 5 g/kg or 8 g/kg
Method: In this example, mice transplanted with HOXA9 MEIS1 or HOXA9 cells are treated with fostamatinib using feed impregnated with fostamatinib at 3 g/kg, 5 g/kg or 8 g/kg (AIN-76A rodent diet).

[2] = test system: AML cell lines; test: cytotoxicity by Annexin V/PI staining against a panel of AML cell lines; format: cell-based; parameters: cytotoxic activity, agent alone: dose or concentration left out as unconfirmed
Method: In this example, the ability of 6-((5-fluoro-2-((3,4,5-trimethoxyphenyl)amino)pyrimidin-4-yl)amino)-2,2-dimethyl-2H-pyrido[3,2-b][1,4]oxazin-3(4H)-one (or a prodrug thereof) to synergistically enhance cytotoxic activity of venetoclax in AML cell lines is evaluated. Cytotoxic effects of venetoclax can be determined using Annexin V/PI staining against a panel of different AML cell lines.

[3] = test system: HOXA9/MEIS1 cells; test: time-lapse microscopy and single-cell tracking of cell fate; format: cell-based
Description: The effect of Syk inhibition in HOXA9 and HOXA9/MEIS1 cells by monitoring the fate of individual cells and their progeny by time-lapse microscopy and single-cell tracking also can be carried out.

[4] = test system: AML cell line xenograft; test: mouse model xenografted with an AML cell line, tumor growth; format: in vivo; conditions: intraperitoneal injections; subcutaneous tumors ≥250 mm^3
Description: The activity of 6-((5-fluoro-2-((3,4,5-trimethoxyphenyl)amino)pyrimidin-4-yl)amino)-2,2-dimethyl-2H-pyrido[3,2-b][1,4]oxazin-3(4H)-one (or a prodrug thereof), alone, also can be evaluated. To do so, activity of 6-((5-fluoro-2-((3,4,5-trimethoxyphenyl)amino)pyrimidin-4-yl)amino)-2,2-dimethyl-2H-pyrido[3,2-b][1,4]oxazin-3(4H)-one can be tested in the appropriate mouse model xenografted with an AML cell line. Tumors can be injected subcutaneously (e.g., in the right flank) and allowed to grow until they reached an appropriate size (e.g., ≥250 mm^3). Intraperitoneal injections can be used to introduce the treatment. […] In some examples, significant differences in tumor volume between mice receiving 6-((5-fluoro-2-((3,4,5-trimethoxyphenyl)amino)pyrimidin-4-yl)amino)-2,2-dimethyl-2H-pyrido[3,2-b][1,4]oxazin-3(4H)-one alone and mice receiving 6-((5-fluoro-2-((3,4,5-trimethoxyphenyl)amino)pyrimidin-4-yl)amino)-2,2-dimethyl-2H-pyrido[3,2-b][1,4]oxazin-3(4H)-one in combination with venetoclax can be observed.

[5] = test system: AML samples expressing high levels of HOXA9 and MEIS1; test: apoptosis measurement (Annexin V) in AML samples; format: cell-based, human; conditions: 1 μM, 5 μM and 10 μM for 24 hours; alone or in combination
Method: Isolation of bone marrow mononuclear cells from human bone marrow aspirates can be achieved by Ficoll density centrifugation (400×g, RT, 45 min). CD34+ bone marrow mononuclear cells can be isolated using the human CD34 MultiSort Kit (Miltenyi Biotec). […] The cells can be passed through a mesh to remove cell clumps and can then be incubated in MACS buffer, which can be supplemented with FcR Blocking Reagent, and CD34 MultiSort MicroBeads for a particular time and at a particular temperature (e.g., 30 minutes at 4° C.). Excess beads are removed by washing and then magnetic separation using LS columns is carried out. After elution, cells are washed once in MACS buffer and can be resuspended in SFEM supplemented with diverse cytokines. Flow cytometry can be used to assess the purity of the isolated cells. […] The Annexin V Apoptosis Detection Kit I (BD Bioscience) can be used to detect apoptotic cell death. Cells are harvested and washed once with PBS, and can be resuspended in Annexin V binding buffer (200 μl 1×) containing 5 μl Annexin-PE or Annexin-APC and incubated at room temperature in the dark. After washing (e.g., once with 1× Annexin binding buffer), cells are resuspended in 1× Annexin V binding buffer containing 7-AAD (5 μl) and incubated at room temperature in the dark. 1× Annexin V binding buffer (200 μl) is added and cells are analysed using a BD LSRFortessa flow cytometer.

COc1cc(Nc2ncc(F)c(Nc3ccc4c(n3)N(COP(=O)(O)O)C(=O)C(C)(C)O4)n2)cc(OC)c1OC [fostamatinib, 6-((5-fluoro-2-((3,4,5-trimethoxyphenyl)amino)pyrimidin-4-yl)amino)-2,2-dimethyl-3-oxo-2,3-dihydro-4H-pyrido[3,2-b][1,4]oxazin-4-yl)methyl dihydrogen phosphate]
survival of mice ([1]; longer treatment (e.g., 20 days)): significantly prolong the survival | percentage of leukemic cells ([1]; one week of treatment): reduce the percentage of leukemic cells

COc1cc(Nc2ncc(F)c(Nc3ccc4c(n3)NC(=O)C(C)(C)O4)n2)cc(OC)c1OC [6-((5-fluoro-2-((3,4,5-trimethoxyphenyl)amino)pyrimidin-4-yl)amino)-2,2-dimethyl-2H-pyrido[3,2-b][1,4]oxazin-3(4H)-one]
effect on cytotoxic activity of venetoclax ([2]; cells treated at different concentrations for e.g. 2 hours): markedly increase the cytotoxic activity of venetoclax | cytotoxic effects on its own ([2]; compound (or prodrug) alone): absence of any substantial cytotoxic effects | cell death compared with cells treated with DMSO [3]: significant increase | tumor growth, compound alone [4]: partially inhibit tumor growth | sensitivity of AML samples with high HOXA9 and MEIS1 compared with samples with weak MEIS1 expression [5]: more sensitive

CC1(C)CCC(CN2CCN(c3ccc(C(=O)NS(=O)(=O)c4ccc(NCC5CCOCC5)c([N+](=O)[O-])c4)c(Oc4cnc5[nH]ccc5c4)c3)CC2)=C(c2ccc(Cl)cc2)C1 [venetoclax, reference compound]
cytotoxic activity, agent alone ([2]; venetoclax alone, concentrations ranging): only modest activity

— patent US20220000880A1, “METHOD AND COMPOSITION EMBODIMENTS FOR TREATING ACUTE MYELOID LEUKEMIA” (Rigel Pharmaceuticals, Inc., priority 2018, published 2022)
